# Molecular target: T1, Vtc1/Vtc3/Vtc4 complex (VTC complex) (Saccharomyces cerevisiae, UniProt P47075+Q02725, P47075:Y22F/P47075:K26A/P47075:K133A)
# T1 construct: full-length subunits co-expressed in Expi293F; Vtc1 C-terminal HA, Vtc3 N-terminal 3xFlag, Vtc4 C-terminal 2xStrep; detergent-purified; 3:1:1 pentamer; with Vacuolar transporter chaperone complex subunit 1
# T1 sequence (P47075 1-721 Y22F/K26A/K133A): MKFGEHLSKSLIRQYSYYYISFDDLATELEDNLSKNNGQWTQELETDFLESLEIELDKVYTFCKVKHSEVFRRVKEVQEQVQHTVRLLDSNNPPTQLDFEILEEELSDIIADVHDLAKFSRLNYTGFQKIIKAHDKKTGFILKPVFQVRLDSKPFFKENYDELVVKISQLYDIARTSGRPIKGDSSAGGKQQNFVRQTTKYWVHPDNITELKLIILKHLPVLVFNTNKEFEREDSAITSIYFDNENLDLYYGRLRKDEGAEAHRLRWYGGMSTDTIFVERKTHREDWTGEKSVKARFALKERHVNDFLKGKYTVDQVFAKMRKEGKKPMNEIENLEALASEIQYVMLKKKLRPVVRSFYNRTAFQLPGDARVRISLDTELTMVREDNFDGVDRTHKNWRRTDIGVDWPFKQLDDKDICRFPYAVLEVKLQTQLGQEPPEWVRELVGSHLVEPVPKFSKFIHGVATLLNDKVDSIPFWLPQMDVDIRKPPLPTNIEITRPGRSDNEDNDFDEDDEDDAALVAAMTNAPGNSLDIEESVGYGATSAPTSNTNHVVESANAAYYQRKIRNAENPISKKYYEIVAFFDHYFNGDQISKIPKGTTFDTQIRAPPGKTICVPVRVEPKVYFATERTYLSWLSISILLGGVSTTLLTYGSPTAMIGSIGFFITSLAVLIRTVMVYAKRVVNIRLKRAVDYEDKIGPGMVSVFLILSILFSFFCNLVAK
# T1 sequence (Q02725 1-835): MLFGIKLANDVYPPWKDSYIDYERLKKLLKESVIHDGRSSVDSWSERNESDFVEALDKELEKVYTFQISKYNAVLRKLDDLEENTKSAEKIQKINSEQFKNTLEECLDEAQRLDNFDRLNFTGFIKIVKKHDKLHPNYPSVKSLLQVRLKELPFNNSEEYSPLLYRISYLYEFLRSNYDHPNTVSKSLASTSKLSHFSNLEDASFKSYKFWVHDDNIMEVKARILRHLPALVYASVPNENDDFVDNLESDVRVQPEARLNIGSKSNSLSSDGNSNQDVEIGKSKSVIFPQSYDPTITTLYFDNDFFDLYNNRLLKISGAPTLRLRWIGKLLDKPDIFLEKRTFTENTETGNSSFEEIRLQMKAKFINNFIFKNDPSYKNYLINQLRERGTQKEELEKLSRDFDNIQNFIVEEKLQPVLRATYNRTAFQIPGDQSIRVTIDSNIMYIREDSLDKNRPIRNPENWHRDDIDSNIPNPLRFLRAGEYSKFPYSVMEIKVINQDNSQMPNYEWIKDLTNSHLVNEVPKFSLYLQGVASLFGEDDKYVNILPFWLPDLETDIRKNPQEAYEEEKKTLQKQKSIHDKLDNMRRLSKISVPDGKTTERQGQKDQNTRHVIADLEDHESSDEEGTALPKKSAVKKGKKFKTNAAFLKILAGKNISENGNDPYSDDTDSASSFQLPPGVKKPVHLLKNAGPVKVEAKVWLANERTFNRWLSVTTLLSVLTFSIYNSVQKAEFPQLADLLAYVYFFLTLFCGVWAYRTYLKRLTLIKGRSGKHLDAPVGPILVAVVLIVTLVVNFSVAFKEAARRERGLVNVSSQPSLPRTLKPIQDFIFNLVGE
# T1 sequence (P40046 2-129 partner): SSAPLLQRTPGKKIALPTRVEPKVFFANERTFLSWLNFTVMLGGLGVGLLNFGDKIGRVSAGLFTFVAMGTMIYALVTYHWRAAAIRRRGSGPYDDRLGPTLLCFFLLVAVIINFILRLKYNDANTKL
# Assay: polyP synthesis, TBE-PAGE
# Type: biochemical
# Details: activator; 15 mM ATP, 10 mM MgCl2, 1 mM MnCl2, 0.5 mM pyrophosphate, 27 °C, 4 h; SPX PBC mutant
compound,measurement,value
O=P(O)(O)O[C@H]1[C@H](OP(=O)(O)O)[C@@H](OP(=O)(O)O)[C@H](OP(=O)(O)O)[C@@H](OP(=O)(O)O)[C@H]1OP(=O)(O)O [InsP6],"polyP synthesis, TBE-PAGE",both reduced InsP6-stimulated polyP synthesis
